Experimental data reported in US11446269B2, “Methods of reducing or preventing oxidation of small dense LDL or membrane polyunsaturated fatty acids” (Amarin Pharmaceuticals Ireland Limited, priority 2014, dated 2022).

Key:
[1] = LOOH formation in glucose-treated model membranes, EPA versus EA and ETE (Example 5); format: biochemical; conditions: 72 or 96 hr autoxidation
Description: An experiment was conducted to compare the ability of EPA to prevent lipid hydroperoxide formation in model membranes treated with glucose to two other 20-carbon fatty acids: eicosanoic acid (“EA,” also referred to as arachidic acid, C20:0) and eicosatrienoic acid (“ETE,” C20:3, n-3). All MLV samples were subjected to time-dependent autoxidation by incubating at 37° C. in an uncovered, shaking water bath. This method allows lipid peroxidation to occur gradually without requiring the use of exogenous initiators. Small aliquots (5-100 μL) of each sample were removed, immediately following MLV preparation (0 hr) and after exposing samples to oxidative conditions for 72 or 96 hr, and combined with 1.0 mL of activated CHOD-iodide color reagent. Aliquot volume was reduced with each successive time point to ensure that spectrophotometric readings were within the optimal adsorption range. Test samples were covered and incubated in darkness at room temperature for at least 4 hr. Sample absorbances were then measured against a CHOD blank at 365 nm using a Beckman DU-640 spectrophotometer. The CHOD colorimetric assay is based on the oxidation of iodide (I^−) by lipid hydroperoxide (LOOH) to form triiodide (I3^−), the quantity of which is directly proportional to the amount of LOOH present in the lipid sample. The molar absorptivity (ε) of I3^− is 2.46×10^4 M^−1 cm^−1 at 365 nm.

[2] = system: HUVECs; experiment: NO and ONOO^− release from HUVECs pretreated with agents, then oxLDL (Example 11, objective 1); format: cell-based, human; conditions: agents 10 μM, 30 min pretreatment, then oxLDL 11 mg/dL up to 3 hr
Description: Human umbilical vein endothelial cells (HUVECs) were obtained from healthy, female donors and isolated into primary, proliferating cell cultures (Clonetics, San Diego, Calif.). […] The confluent cells (4 to 5×10^5 cells/35 mm dish) were plated with minimum essential medium containing 3 mM L-arginine and 0.1 mM BH4 [(6R)-5,6,7,8-tetrahydrobiopterin]. Before experimental use, the cells (from second or third passage) were rinsed twice with Tyrode-HEPES buffer with 1.8 mM CaCl2.
Venous blood was collected from healthy volunteers into vacutainer tubes containing sodium EDTA. […] The LDL subfraction was retained for additional experimentation. Plasma and lipoprotein fractions were maintained at 4° C. and protected from excessive exposure to light. Prior to oxidation experiments, EDTA was removed from the lipoprotein fraction using PD-10 desalting columns (GE Healthcare, Piscataway N.J.). After equilibration of the column with phosphate buffered saline (PBS), 2.5 mL of the lipoprotein fraction was loaded on the column and the flow-through discarded. The lipoprotein was then eluted with 3 mL of PBS. The LDL fractions were further diluted with PBS to obtain a 100 μg/mL apoB100 concentration.
LDL underwent oxidation following the addition of 10 μM CuSO4. To measure oxidation, 100 μL aliquots were removed and combined with 1.0 mL thiobarbituric acid (0.5%), 10 μL trichloroacetic acid (5%), 10 μL BHT (5 mg/mL in methanol), and 10 μL EDTA (5 mM). […] Sample TBARS concentrations were determined spectrophotometrically by measuring sample absorbances against a standard curve derived from the hydrolysis of 1,1,3,3-tetramethoxypropane.
Concurrent measurements of NO and ONOO^− were performed with tandem electrochemical nanosensors combined into one working unit with a total diameter of 200-400 nm. […]
The amperometric method (with a response time of 0.1 ms) provides a quantitative signal (current) that is directly proportional to changes (from basal levels) in NO or ONOO^− concentration. […] Basal NO or ONOO^− levels were measured by differential pulse voltammetry in separate experiments. […]

CC/C=C\C/C=C\C/C=C\C/C=C\C/C=C\CCCC(=O)O [EPA, cis-5,8,11,14,17-eicosapentaenoic acid]
LOOH formation compared to vehicle, glucose, glucose + EA, glucose + ETE [1]: significantly less LOOH formation

O=C(O)c1cccnc1 [Niacin, nicotinic acid]
NO/ONOO^− Ratio [2]: 1.45 ± 0.14 | NO release ([2]; calcium ionophore): 346 ± 17 | NO/ONOO^− Ratio ([2]; listed as niacin): 1.45±0.14
